Test system: HCI-019 (organoid from a triple-negative breast cancer xenograft)
Test: CTG-3D luminescence at 96 h relative to day-0 seeding control (ratio to day 0); higher = more growth / less cytotoxicity; PDxO 3D drug screen, 96 h, CTG-3D normalised to day-0 seeding control.
Details: 0.005 µM; days in culture: 152

Point of comparison: `CS(=O)(=O)c1ccc(C(=O)Nc2ccc(Cl)c(-c3ccccn3)c2)c(Cl)c1` [vismodegib], “CTG-3D luminescence at 96 h” value 2.59. Against it:
- COc1cc2c(Oc3ccc4[nH]c(C)cc4c3F)ncnc2cc1OCCCN1CCCC1 [cediranib] — higher, 2.62
- CC(C)n1nc(-c2ccc3oc(N)nc3c2)c2c(N)ncnc21 [sapanisertib] — higher, 2.71
- Cc1cc(Nc2ncnc3ccc(NC4=NC(C)(C)CO4)cc23)ccc1Oc1ccn2ncnc2c1 [tucatinib] — higher, 3.04
- C[C@H](NC(=O)CCC(F)(F)F)C(=O)N[C@@H]1C(=O)N(CCO)c2ncccc2-c2ccccc21 [crenigacestat] — higher, 2.6
- C[C@]12CC[C@@H]3c4ccc(O)cc4C[C@@H](CCCCCCCCC[S+]([O-])CCCC(F)(F)C(F)(F)F)[C@H]3[C@@H]1CC[C@@H]2O (some centres not stated) [fulvestrant] — higher, 3.24
- O=C(c1ccc(F)c(F)c1Nc1ccc(I)cc1F)N1CC(O)([C@@H]2CCCCN2)C1 [cobimetinib] — higher, 2.66
- O=C(/C=C/c1cccnc1)NCCCCC1CCN(C(=O)c2ccccc2)CC1 [FK866] — lower, 0.557
- C=CCn1c(=O)c2cnc(Nc3ccc(N4CCN(C)CC4)cc3)nc2n1-c1cccc(C(C)(C)O)n1 [adavosertib] — higher, 3.28

Same assay, conditions: 0.1 µM; days in culture: 110

Point of comparison: `C[C@H](NC(=O)CCC(F)(F)F)C(=O)N[C@@H]1C(=O)N(CCO)c2ncccc2-c2ccccc21` [crenigacestat], “CTG-3D luminescence at 96 h” value 2.18. Against it:
- COc1cc2c(Oc3ccc4[nH]c(C)cc4c3F)ncnc2cc1OCCCN1CCCC1 [cediranib] — higher, 2.39
- CC(C)n1nc(-c2ccc3oc(N)nc3c2)c2c(N)ncnc21 [sapanisertib] — lower, 0.781
- Cc1cc(Nc2ncnc3ccc(NC4=NC(C)(C)CO4)cc23)ccc1Oc1ccn2ncnc2c1 [tucatinib] — lower, 1.81
- C[C@]12CC[C@@H]3c4ccc(O)cc4C[C@@H](CCCCCCCCC[S+]([O-])CCCC(F)(F)C(F)(F)F)[C@H]3[C@@H]1CC[C@@H]2O (some centres not stated) [fulvestrant] — higher, 2.26
- O=C(c1ccc(F)c(F)c1Nc1ccc(I)cc1F)N1CC(O)([C@@H]2CCCCN2)C1 [cobimetinib] — lower, 1.74
- O=C(/C=C/c1cccnc1)NCCCCC1CCN(C(=O)c2ccccc2)CC1 [FK866] — lower, 0.0554
- CS(=O)(=O)c1ccc(C(=O)Nc2ccc(Cl)c(-c3ccccn3)c2)c(Cl)c1 [vismodegib] — higher, 2.46
- C=CCn1c(=O)c2cnc(Nc3ccc(N4CCN(C)CC4)cc3)nc2n1-c1cccc(C(C)(C)O)n1 [adavosertib] — lower, 1.52

Same assay, conditions: 0.1 µM; days in culture: 131

Point of comparison: `O=C(/C=C/c1cccnc1)NCCCCC1CCN(C(=O)c2ccccc2)CC1` [FK866], “CTG-3D luminescence at 96 h” value 0.542. Against it:
- COc1cc2c(Oc3ccc4[nH]c(C)cc4c3F)ncnc2cc1OCCCN1CCCC1 [cediranib] — higher, 3.43
- CC(C)n1nc(-c2ccc3oc(N)nc3c2)c2c(N)ncnc21 [sapanisertib] — higher, 1.21
- Cc1cc(Nc2ncnc3ccc(NC4=NC(C)(C)CO4)cc23)ccc1Oc1ccn2ncnc2c1 [tucatinib] — higher, 3.65
- C[C@H](NC(=O)CCC(F)(F)F)C(=O)N[C@@H]1C(=O)N(CCO)c2ncccc2-c2ccccc21 [crenigacestat] — higher, 2.86
- C[C@]12CC[C@@H]3c4ccc(O)cc4C[C@@H](CCCCCCCCC[S+]([O-])CCCC(F)(F)C(F)(F)F)[C@H]3[C@@H]1CC[C@@H]2O (some centres not stated) [fulvestrant] — higher, 3.98
- O=C(c1ccc(F)c(F)c1Nc1ccc(I)cc1F)N1CC(O)([C@@H]2CCCCN2)C1 [cobimetinib] — higher, 3.24
- CS(=O)(=O)c1ccc(C(=O)Nc2ccc(Cl)c(-c3ccccn3)c2)c(Cl)c1 [vismodegib] — higher, 3.93
- C=CCn1c(=O)c2cnc(Nc3ccc(N4CCN(C)CC4)cc3)nc2n1-c1cccc(C(C)(C)O)n1 [adavosertib] — higher, 2.25

Same assay, conditions: 0.1 µM; days in culture: 152

Point of comparison: `CC(C)n1nc(-c2ccc3oc(N)nc3c2)c2c(N)ncnc21` [sapanisertib], “CTG-3D luminescence at 96 h” value 0.969. Against it:
- COc1cc2c(Oc3ccc4[nH]c(C)cc4c3F)ncnc2cc1OCCCN1CCCC1 [cediranib] — higher, 1.68
- Cc1cc(Nc2ncnc3ccc(NC4=NC(C)(C)CO4)cc23)ccc1Oc1ccn2ncnc2c1 [tucatinib] — higher, 1.67
- C[C@H](NC(=O)CCC(F)(F)F)C(=O)N[C@@H]1C(=O)N(CCO)c2ncccc2-c2ccccc21 [crenigacestat] — higher, 2.64
- C[C@]12CC[C@@H]3c4ccc(O)cc4C[C@@H](CCCCCCCCC[S+]([O-])CCCC(F)(F)C(F)(F)F)[C@H]3[C@@H]1CC[C@@H]2O (some centres not stated) [fulvestrant] — higher, 2.41
- O=C(c1ccc(F)c(F)c1Nc1ccc(I)cc1F)N1CC(O)([C@@H]2CCCCN2)C1 [cobimetinib] — higher, 1.88
- O=C(/C=C/c1cccnc1)NCCCCC1CCN(C(=O)c2ccccc2)CC1 [FK866] — lower, 0.476
- CS(=O)(=O)c1ccc(C(=O)Nc2ccc(Cl)c(-c3ccccn3)c2)c(Cl)c1 [vismodegib] — higher, 1.83
- C=CCn1c(=O)c2cnc(Nc3ccc(N4CCN(C)CC4)cc3)nc2n1-c1cccc(C(C)(C)O)n1 [adavosertib] — higher, 1.42

Same assay, conditions: 1 µM; days in culture: 110

Point of comparison: `C[C@H](NC(=O)CCC(F)(F)F)C(=O)N[C@@H]1C(=O)N(CCO)c2ncccc2-c2ccccc21` [crenigacestat], “CTG-3D luminescence at 96 h” value 1.25. Against it:
- COc1cc2c(Oc3ccc4[nH]c(C)cc4c3F)ncnc2cc1OCCCN1CCCC1 [cediranib] — lower, 1.07
- CC(C)n1nc(-c2ccc3oc(N)nc3c2)c2c(N)ncnc21 [sapanisertib] — lower, 0.409
- Cc1cc(Nc2ncnc3ccc(NC4=NC(C)(C)CO4)cc23)ccc1Oc1ccn2ncnc2c1 [tucatinib] — lower, 1.13
- C[C@]12CC[C@@H]3c4ccc(O)cc4C[C@@H](CCCCCCCCC[S+]([O-])CCCC(F)(F)C(F)(F)F)[C@H]3[C@@H]1CC[C@@H]2O (some centres not stated) [fulvestrant] — higher, 1.97
- O=C(c1ccc(F)c(F)c1Nc1ccc(I)cc1F)N1CC(O)([C@@H]2CCCCN2)C1 [cobimetinib] — lower, 0.92
- O=C(/C=C/c1cccnc1)NCCCCC1CCN(C(=O)c2ccccc2)CC1 [FK866] — lower, 0.0484
- CS(=O)(=O)c1ccc(C(=O)Nc2ccc(Cl)c(-c3ccccn3)c2)c(Cl)c1 [vismodegib] — higher, 1.99
- C=CCn1c(=O)c2cnc(Nc3ccc(N4CCN(C)CC4)cc3)nc2n1-c1cccc(C(C)(C)O)n1 [adavosertib] — lower, 0.377

Same assay, conditions: 1 µM; days in culture: 131

Point of comparison: `O=C(/C=C/c1cccnc1)NCCCCC1CCN(C(=O)c2ccccc2)CC1` [FK866], “CTG-3D luminescence at 96 h” value 0.448. Against it:
- COc1cc2c(Oc3ccc4[nH]c(C)cc4c3F)ncnc2cc1OCCCN1CCCC1 [cediranib] — higher, 1.59
- CC(C)n1nc(-c2ccc3oc(N)nc3c2)c2c(N)ncnc21 [sapanisertib] — higher, 0.676
- Cc1cc(Nc2ncnc3ccc(NC4=NC(C)(C)CO4)cc23)ccc1Oc1ccn2ncnc2c1 [tucatinib] — higher, 2.9
- C[C@H](NC(=O)CCC(F)(F)F)C(=O)N[C@@H]1C(=O)N(CCO)c2ncccc2-c2ccccc21 [crenigacestat] — higher, 2.87
- C[C@]12CC[C@@H]3c4ccc(O)cc4C[C@@H](CCCCCCCCC[S+]([O-])CCCC(F)(F)C(F)(F)F)[C@H]3[C@@H]1CC[C@@H]2O (some centres not stated) [fulvestrant] — higher, 3.13
- O=C(c1ccc(F)c(F)c1Nc1ccc(I)cc1F)N1CC(O)([C@@H]2CCCCN2)C1 [cobimetinib] — higher, 1.65
- CS(=O)(=O)c1ccc(C(=O)Nc2ccc(Cl)c(-c3ccccn3)c2)c(Cl)c1 [vismodegib] — higher, 2.82
- C=CCn1c(=O)c2cnc(Nc3ccc(N4CCN(C)CC4)cc3)nc2n1-c1cccc(C(C)(C)O)n1 [adavosertib] — lower, 0.386

Same assay, conditions: 1 µM; days in culture: 152

Point of comparison: `CS(=O)(=O)c1ccc(C(=O)Nc2ccc(Cl)c(-c3ccccn3)c2)c(Cl)c1` [vismodegib], “CTG-3D luminescence at 96 h” value 2.08. Against it:
- COc1cc2c(Oc3ccc4[nH]c(C)cc4c3F)ncnc2cc1OCCCN1CCCC1 [cediranib] — lower, 0.851
- CC(C)n1nc(-c2ccc3oc(N)nc3c2)c2c(N)ncnc21 [sapanisertib] — lower, 0.811
- Cc1cc(Nc2ncnc3ccc(NC4=NC(C)(C)CO4)cc23)ccc1Oc1ccn2ncnc2c1 [tucatinib] — lower, 1.99
- C[C@H](NC(=O)CCC(F)(F)F)C(=O)N[C@@H]1C(=O)N(CCO)c2ncccc2-c2ccccc21 [crenigacestat] — lower, 1.96
- C[C@]12CC[C@@H]3c4ccc(O)cc4C[C@@H](CCCCCCCCC[S+]([O-])CCCC(F)(F)C(F)(F)F)[C@H]3[C@@H]1CC[C@@H]2O (some centres not stated) [fulvestrant] — lower, 1.37
- O=C(c1ccc(F)c(F)c1Nc1ccc(I)cc1F)N1CC(O)([C@@H]2CCCCN2)C1 [cobimetinib] — lower, 1.11
- O=C(/C=C/c1cccnc1)NCCCCC1CCN(C(=O)c2ccccc2)CC1 [FK866] — lower, 0.267
- C=CCn1c(=O)c2cnc(Nc3ccc(N4CCN(C)CC4)cc3)nc2n1-c1cccc(C(C)(C)O)n1 [adavosertib] — lower, 0.511

Same assay, conditions: 10 µM; days in culture: 110

Point of comparison: `COc1cc2c(Oc3ccc4[nH]c(C)cc4c3F)ncnc2cc1OCCCN1CCCC1` [cediranib], “CTG-3D luminescence at 96 h” value 0.1. Against it:
- CC(C)n1nc(-c2ccc3oc(N)nc3c2)c2c(N)ncnc21 [sapanisertib] — higher, 0.493
- Cc1cc(Nc2ncnc3ccc(NC4=NC(C)(C)CO4)cc23)ccc1Oc1ccn2ncnc2c1 [tucatinib] — higher, 2.33
- C[C@H](NC(=O)CCC(F)(F)F)C(=O)N[C@@H]1C(=O)N(CCO)c2ncccc2-c2ccccc21 [crenigacestat] — higher, 2.5
- C[C@]12CC[C@@H]3c4ccc(O)cc4C[C@@H](CCCCCCCCC[S+]([O-])CCCC(F)(F)C(F)(F)F)[C@H]3[C@@H]1CC[C@@H]2O (some centres not stated) [fulvestrant] — higher, 2.13
- O=C(c1ccc(F)c(F)c1Nc1ccc(I)cc1F)N1CC(O)([C@@H]2CCCCN2)C1 [cobimetinib] — higher, 0.565
- O=C(/C=C/c1cccnc1)NCCCCC1CCN(C(=O)c2ccccc2)CC1 [FK866] — lower, 0.0475
- CS(=O)(=O)c1ccc(C(=O)Nc2ccc(Cl)c(-c3ccccn3)c2)c(Cl)c1 [vismodegib] — higher, 2.18
- C=CCn1c(=O)c2cnc(Nc3ccc(N4CCN(C)CC4)cc3)nc2n1-c1cccc(C(C)(C)O)n1 [adavosertib] — higher, 0.536
